Test results taken from publication PMC6600665, “Identification and Characterization of Approved Drugs and Drug-Like Compounds as Covalent Escherichia coli ClpP Inhibitors” (International Journal of Molecular Sciences, 2019).
Like-named read-outs stand apart in the source and are kept apart here.

Experiments:
bovine α-chymotrypsin = molecular target: T1, bovine α-chymotrypsin (Bos taurus, UniProt P00766); assay: Serine protease selectivity assay with bovine α-chymotrypsin (Suc-LY-AMC); assay type: biochemical; conditions: 200 μM compound concentration
T1 construct: purchased Sigma-Aldrich C4129
Procedure: Compound selectivity was assessed using bovine α-chymotrypsin (#C4129, Sigma-Aldrich, St. Louis, MO, USA) at 200 µM. The assay was carried out as described above, except that 1 ng/μL of α-chymotrypsin and 100 μM of Suc-LY-AMC substrate were dissolved in a buffer containing 150 mM NaCl, 10 mM CaCl2, 50 mM Tris-HCl, and 0.05% Brij® 35.

HTC-116 cells = assay: in vitro; assay type: cell-based
Procedure: (§1) Potential cell toxicity of the tested compounds was evaluated by ATP quantification using the CellTiter-Glo® luminescent cell viability assay (Promega, Madison, WI, USA). […] After incubation, 20 µL of CellTiter-Glo® reagent were added per well and incubated at room temperature in the dark for another 30 min. Luminescence was quantified by an EnVision multi-plate reader (PerkinElmer, Rodgau, Germany).

A549 cells = assay: in vitro; assay type: cell-based
Procedure: as §1

MCF-7 cells = assay: in vitro; assay type: cell-based
Procedure: as §1

[1] = test system: E. coli BW25-113 (wild type); assay: Growth delay under nitric oxide stress (DPTA NONOate) in M9 medium, wild type; assay type: cell-based; conditions: WT E. coli, both tested concentrations (50 and 100 μM), M9 minimal medium
Procedure: (§2) Assessment of E. coli growth delay in presence of nitric oxide stress was carried out following our recently published protocol, which is an adaptation of the method reported by Robinson and Brynildsen to a 96-well plate format. Fresh MHB medium was inoculated with isolated colonies of E. coli BW25-113 or E. coli JW0427-1, grown on Luria Agar, and left overnight in a shaking incubator (250 rpm) at 37 °C. On the following day, the overnight culture was used to inoculate fresh M9 medium (supplemented with 10 mM glucose) 1:100, and was grown until OD600 ~0.3. Afterwards, the culture was transferred into 96-well, flat-bottom, sterile clear plates (#167008, Nunc, VWR). Bacterial OD600 was adjusted to 0.1 with M9 medium (supplemented with 10 mM glucose). Test compounds were transferred into the 96-well plates, followed by addition of the bacterial culture. Nitric oxide stress was induced by addition of 2 mM DPTA NONOate ((Z)-1-[N-(3-aminopropyl)-N-(3-ammoniopropyl)amino]diazen-1-ium-1,2-diolate, Cayman Chemical, Ann Arbor, MI, USA), dissolved in NaOH (final concentration 0.14 mM). Absorbance measurements (600 nm) were done with a Multiskan GO or Varioskan LUX plate reader (Thermo Fisher Scientific, Finland) at hourly intervals for 24 h. Between measurements, plates were incubated in a shaking incubator (500 rpm) at 37 °C.

[2] = test system: E. coli BW25-113 (wild type); assay: Antibacterial growth inhibition assay in MHB, wild type; assay type: cell-based; conditions: 24 h; for inhibition at 100 µM: Escherichia coli, read-out: Growth Inhibition (%)
Procedure: (§3) The potential of hit compounds to interfere with bacterial growth was evaluated in E. coli BW25-113 (wild type) and tolC-deficient strain E. coli JW5503 [34] (obtained from the NBRP-E. coli collection at the National Institute of Genetics, Mishima, Japan). The effect of the compounds on wild-type strain E. coli BW25-113 and the isogenic clpP-deficient E. coli JW0427-1 [34] (coli genetic stock center, New Haven, CT, USA) were measured in the presence of the efflux pump inhibitor Phe-Arg β-naphthylamide dihydrochloride (#P4157, Sigma-Aldrich, USA) at 25 μM. Single colonies of the bacterial strains from Mueller Hinton Agar culture were used to inoculate 5 mL of saline solution. The suspension was transferred into fresh, sterile Mueller Hinton broth (MHB) medium, resulting in a final concentration of 10^6 CFU/mL. Growth assays were carried out in 96-well, flat-bottom, sterile clear plates (#167008, Nunc, VWR, Radnor, PA, USA) and compounds were tested at 50 and 100 μM concentration (2% DMSO). Absorbance at 600 nm was measured using the Multiskan GO or Varioskan LUX plate reader (Thermo Fisher Scientific, Vantaa, Finland) for 24 h at hourly intervals. Between measurements, plates were incubated in a shaking incubator (500 rpm) at 37 °C.

E. coli ClpP [3] = molecular target: T2, E. coli ClpP (Escherichia coli, UniProt P0A6G7); assay: Surface plasmon resonance binding to immobilized ClpP; conditions: 80 µM, injected over 7 min, 30 min dissociation
T2 construct: His-tag; made in house; host or cells: E. coli SG1146a
Procedure: E. coli ClpP (80 μg/mL) protein was immobilized, using amine coupling (SPR-AS-HCA-03, Bruker Daltonics Inc., Billerica, MA, USA), onto the surface of the sensor chip of a SIERRA SPR-16 instrument (Bruker Daltonics GmbH, Bremen, Germany). ClpP protein was dissolved in acetate at pH 4. The running buffer contained 150 mM NaCl, 10 mM Hepes, 3 mM EDTA, and 0.05% (v/v) Tween-20. The flow rate for protein immobilization was 10 μL/min. Binding experiments were carried out using running buffer with the addition of 0.8% (v/v) of DMSO and 80 µM test substance (flow rate of 20 μL/min for 7 min and up to 30 min of dissociation time). […] SPR data were analyzed using the Analyzer 3 software (Bruker Daltonics GmbH), which includes algorithms for subtracting reference signals and accounting for non-specific interactions between the solvent and the sensor chip surface.

E. coli JW0427 (ΔclpP) [4] = assay: Antibacterial growth inhibition assay in MHB, clpP-deficient strain; assay type: cell-based; conditions: Escherichia coli, 24 h, read-out: Growth Inhibition (%)
Procedure: as §3

E. coli ClpP [5] = molecular target: T2, E. coli ClpP; assay: Fluorescence-based E. coli ClpP proteolytic activity assay (Suc-LY-AMC), primary screen and dose-response; assay type: biochemical; conditions: for E. coli ClpP inhibition [%] in the primary screen: 200 µM
Procedure: Briefly, 25 ng/μL of E. coli ClpP dissolved in a buffer containing 100 mM NaCl, 100 mM 4-(2-hydroxyethyl)-1-piperazineethanesulfonic acid (HEPES) pH 7.5, and 0.05% Brij® 35 were transferred into each well. Test compound addition (final concentration 200 µM) was carried out using an Echo® 550 liquid handling system (Labcyte, Sunnyvale, CA, USA). […] Changes in fluorescence (excitation 350 nm, emission 435 nm) were monitored at 1 min intervals at 30 °C over 1 h using an Infinite M1000 microplate reader (Tecan).
The assay was carried out as described above with increasing concentrations of test compounds. Dose-response experiments were done at least 3 times independently, each in technical triplicates.
Calculation of Z prime (Z’) for HTS assay performance was done according to Zhang et al.. Plates were considered for further analyses if Z’ > 0.6 [26].

in vitro = assay type: cell-based; conditions: human, 48 h incubation, 1:3 dilutions starting from 200 μM
Procedure: as §1

E. coli JW0427 (ΔclpP) [6] = assay: Growth delay under nitric oxide stress (DPTA NONOate) in M9 medium, clpP-deficient strain; assay type: cell-based; conditions: clpP-deficient E. coli, DPTA NONOate, compared with cells without compound
Procedure: as §2

E. coli JW5503 (ΔtolC) = assay: Antibacterial growth inhibition assay in MHB, efflux pump-defective strain; assay type: cell-based; conditions: Escherichia coli, 24 h, read-out: Growth Inhibition (%)
Procedure: as §3

[7] = read-out: E. coli ClpP inhibition [%] in the primary screen, primary screen, 200 µM
[8] = read-out: Inhibition (%) at 200 μM E. coli ClpP, 200 μM compound concentration
[9] = A549 cells, read-out: Cytotoxicity A549 IC50
[10] = HTC-116 cells, read-out: Cytotoxicity HTC-116 IC50
[11] = MCF-7 cells, read-out: Cytotoxicity MCF-7 IC50
[12] = E. coli WT, without PAβN, 100 μM, 37 °C, MHB

T2 sequence (P0A6G7 15-207): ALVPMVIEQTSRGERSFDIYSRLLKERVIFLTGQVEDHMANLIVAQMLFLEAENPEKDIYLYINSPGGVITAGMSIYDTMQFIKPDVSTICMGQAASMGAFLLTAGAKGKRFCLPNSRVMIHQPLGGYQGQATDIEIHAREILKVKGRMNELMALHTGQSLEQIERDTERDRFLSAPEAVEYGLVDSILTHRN

With `CC(C)C[C@H](NC(=O)[C@H](Cc1ccccc1)NC(=O)c1cnccn1)B(O)O` [Bortezomib, bortezomib] the “Inhibition (%) at 200 μM α-Chymotrypsin” value (bovine α-chymotrypsin) was “completely inhibited”, the inhibition at 200 µM (bovine α-chymotrypsin) was 97.8% and the “Cytotoxicity HTC-116 Ratio (IC50 cytotoxicity/IC50 ClpP)” value (“Cytotoxicity HTC-116 Ratio” below) (HTC-116 cells) was 0.005. The “Cytotoxicity A549 Ratio (IC50 cytotoxicity/IC50 ClpP)” value (from here on “Cytotoxicity A549 Ratio”) (A549 cells) was 0.005, the “Cytotoxicity MCF-7 Ratio (IC50 cytotoxicity/IC50 ClpP)” value (MCF-7 cells) was 1 and the “Bacterial growth in absence of NO• stress” value [1] was “did not show any effect”. The inhibition at 100 µM [2] was 55%, the “Covalent / irreversible binding to ClpP by SPR” value (E. coli ClpP [3]) was “covalent binding” and the “SPR signal (resonance units, RU)” value (E. coli ClpP [3]) was “low change of absolute resonance unit”. The inhibition at 100 µM (E. coli JW0427 (ΔclpP) [4]) was 100%, the IC50 (E. coli ClpP [5]) was 0.04 µM and the “E. coli ClpP inhibition [%] in the primary screen” value (“E. coli ClpP inhibition [%]” below) (E. coli ClpP [5]) was over 90%. For the same molecule, the inhibition at 200 µM (E. coli ClpP [5]; [7]) was 100% and the inhibition at 200 µM (E. coli ClpP [5]; [8]) was 100%.

In the case of `O=c1oc(Cl)c(Cl)c2ccccc12` [3,4-DIC, 3,4-dichloroisocoumarin], the “Inhibition (%) at 200 μM α-Chymotrypsin” value (bovine α-chymotrypsin) is reported as “completely inhibited”, the inhibition at 200 µM (bovine α-chymotrypsin) is reported as 101% and the “Cytotoxicity HTC-116 Ratio” value (HTC-116 cells; HTC-116) is reported as 9.2. For the same molecule, the IC50 at 48 h (in vitro; [9]) was 44.7 µM, the IC50 at 48 h (in vitro; [10]) was 45.1 µM and the IC50 at 48 h (in vitro; [11]) was 9.06 µM. For the same molecule, the “Cytotoxicity A549 Ratio” value (A549 cells; A549) was 9.12, the “Cytotoxicity MCF-7 Ratio (IC50 cytotoxicity/IC50 ClpP)” value (MCF-7 cells; MCF-7) was 1.85 and the “Bacterial growth in absence of NO• stress” value [1] was “small growth delay”. For the same molecule, the “Growth Inhibition (%)” value [2, 12] was “did not show any intrinsic antimicrobial activities”, the “Covalent / irreversible binding to ClpP by SPR” value (E. coli ClpP [3]) was “covalent binding” and the “Growth delay in presence of nitric oxide stress” value (E. coli JW0427 (ΔclpP) [6]) was “did not show any significant effect”. The IC50 (E. coli ClpP [5]) was 4.9 µM, the “E. coli ClpP inhibition [%]” value (E. coli ClpP [5]) was over 90% and the inhibition at 200 µM (E. coli ClpP [5]; [7]) was 98.9%. For the same molecule, the inhibition at 200 µM (E. coli ClpP [5]; [8]) was 98.9%.

In the case of `CO[C@@]1(NC(=O)CSCC#N)C(=O)N2C(C(=O)O)=C(CSc3nnnn3C)CS[C@@H]21` [Cefmetazole, cefmetazole], the “Inhibition (%) at 200 μM α-Chymotrypsin” value (bovine α-chymotrypsin) is reported as “no inhibition”, the inhibition at 200 µM (bovine α-chymotrypsin) is reported as 0% and the “Cytotoxicity HTC-116 Ratio” value (HTC-116 cells; HTC-116) is reported as 1597.06. For the same molecule, the IC50 at 48 h (in vitro; [9]) was 250 µM, the IC50 at 48 h (in vitro; [10]) was 5430 µM and the IC50 at 48 h (in vitro; [11]) was 74.1 µM. The “Cytotoxicity A549 Ratio” value (A549 cells; A549) was 73.53, the inhibition at 100 µM [2, 12] was 100% and the inhibition at 100 µM (E. coli JW0427 (ΔclpP) [4]) was 100%. The IC50 (E. coli ClpP [5]) was 3.4 µM, the “E. coli ClpP inhibition [%]” value (E. coli ClpP [5]) was over 90% and the inhibition at 200 µM (E. coli ClpP [5]; [7]) was 94.5%. The inhibition at 200 µM (E. coli ClpP [5]; [8]) was 94.5% and the inhibition at 100 µM (E. coli JW5503 (ΔtolC)) was 100%.
